According to patent US20080033045A1, “TREATMENT OF PSYCHIATRIC DISORDERS” (Myriad Genetics, Incorporated, priority 2006, published 2008):

System: Alzheimer's disease patients
Experiment: Clinical trial in Alzheimer's disease patients, analysis of psychiatric disorder events (MedDRA adverse events)
Assay type: in vivo, human
Method: A clinical trial with (R)-2-(2-fluoro-4-biphenylyl)propionic acid (USAN name of tarneflurbil) was conducted according to the method disclosed in U.S. patent application Ser. No. 10/889,971, filed Jul. 12, 2004, (US publication no. 20050042284) which is expressly incorporated herein by reference in its entirety. In this clinical trial, Alzheimer's disease patients were treated with placebo, 400 mg tarenflurbil twice daily, or 800 mg tarenflurbil twice daily for one year. Analysis of the psychiatric disorder events yielded the following results.

[1] = 400 mg BID for one year, N = 40
[2] = 800 mg BID for one year, N = 50

SMILES: C[C@@H](C(=O)O)c1ccc(-c2ccccc2)c(F)c1 [tarenflurbil, (R)-2-(2-fluoro-4-biphenylyl)propionic acid]
- Abnormal behaviour, number [1]: 0
- Abnormal dreams, number [1]: 0
- Aggression, number [1]: 0
- Agitation, number [1]: 2
- Agitation, percent of N [1]: (5%)
- Anger, number [1]: 1
- Anger, percent of N [1]: (2.5%)
- Anxiety, number [1]: 2
- Anxiety, percent of N [1]: (5%)
- Apathy, number [1]: 0
- Confusional state, number [1]: 4
- Confusional state, percent of N [1]: (10%)
- Delusion, number [1]: 1
- Delusion, percent of N [1]: (2.5%)
- Depression, number [1]: 1
- Depression, percent of N [1]: (2.5%)
- Hallucination, number [1]: 0
- Hallucination, visual, number [1]: 1
- Hallucination, visual, percent of N [1]: (2.5%)
- Insomnia, number [1]: 0
- Libi do increased, number [1]: 1
- Libi do increased, percent of N [1]: (2.5%)
- Mood altered, number [1]: 0
- Mood swings, number [1]: 1
- Mood swings, percent of N [1]: (2.5%)
- Nightmare, number [1]: 0
- Number of Patients With at Least One Adverse Event (Psychiatric Disorder) [1]: 12
- Paranoia, number [1]: 1
- Paranoia, percent of N [1]: (2.5%)
- Patients With at Least One Adverse Event (Psychiatric Disorder), percent of N [1]: (30%)
- Psychotic disorder, number [1]: 1
- Psychotic disorder, percent of N [1]: (2.5%)
- Sleep disorder, number [1]: 1
- Sleep disorder, percent of N [1]: (2.5%)
- Total Number of Adverse Events (Psychiatric Disorders, MedDRA) [1]: 17
- Abnormal behaviour, number [2]: 0
- Abnormal dreams, number [2]: 0
- Aggression, number [2]: 0
- Agitation, number [2]: 1
- Agitation, percent of N [2]: (2%)
- Anger, number [2]: 0
- Anxiety, number [2]: 2
- Anxiety, percent of N [2]: (4%)
- Apathy, number [2]: 0
- Confusional state, number [2]: 0
- Delusion, number [2]: 0
- Depression, number [2]: 4
- Depression, percent of N [2]: (8%)
- Hallucination, number [2]: 0
- Hallucination, visual, number [2]: 0
- Insomnia, number [2]: 1
- Insomnia, percent of N [2]: (2%)
- Libi do increased, number [2]: 0
- Mood altered, number [2]: 1
- Mood altered, percent of N [2]: (2%)
- Mood swings, number [2]: 0
- Nightmare, number [2]: 1
- Nightmare, percent of N [2]: (2%)
- Number of Patients With at Least One Adverse Event (Psychiatric Disorder) [2]: 7
- Paranoia, number [2]: 0
- Patients With at Least One Adverse Event (Psychiatric Disorder), percent of N [2]: (14%)
- Psychotic disorder, number [2]: 0
- Sleep disorder, number [2]: 0
- Total Number of Adverse Events (Psychiatric Disorders, MedDRA) [2]: 10
- number of psychiatric events (incidence) (treatment group, statistical analysis, p=0.02): reduce the incidence of psychiatric events
- time to progression to psychiatric events (onset) (treatment group, statistical analysis, p=0011): delay the onset of
